Test results as given in the CheMixHub viscosity set.

Assay: xn = mol fraction of the nth substance listed

ClC(Cl)C(Cl)Cl + CNc1ccccc1
303 K, 101.33 kPa
Settings | viscosity [mPa·s]
x2 = 0.1012 | 1.439
x2 = 0.1991 | 1.49
x2 = 0.3016 | 1.541
x2 = 0.4007 | 1.59
x2 = 0.5004 | 1.633
x2 = 0.6007 | 1.66
x2 = 0.7017 | 1.686
x2 = 0.7992 | 1.707
x2 = 0.9013 | 1.73

CCCCCCN + CCN(CC)CC
viscosity [mPa·s], 101.33 kPa
Settings | x2 = 0.1014 | x2 = 0.1952 | x2 = 0.3807 | x2 = 0.4897 | x2 = 0.5912 | x2 = 0.7898 | x2 = 0.8946
303.15 K | 0.6552 | 0.6088 | 0.5322 | 0.4934 | 0.4613 | 0.407 | 0.3827
313.15 K | 0.5654 | 0.5278 | 0.4639 | 0.4323 | 0.4027 | 0.3627 | 0.3436

ClC(Cl)C(Cl)Cl + CCCCCCCCC
303.15 K, 101 kPa
Settings | viscosity [mPa·s]
x1 = 0.1552 | 0.651
x1 = 0.2636 | 0.704
x1 = 0.3332 | 0.742
x1 = 0.3926 | 0.77
x1 = 0.5196 | 0.836
x1 = 0.5976 | 0.879
x1 = 0.6903 | 0.943
x1 = 0.7468 | 0.991
x1 = 0.8858 | 1.163
x1 = 0.9204 | 1.235

ClC(Cl)C(Cl)Cl + CC#N
303.15 K, 101.32 kPa
Settings | viscosity [mPa·s]
x2 = 0.1125 | 1.381
x2 = 0.2007 | 1.315
x2 = 0.2582 | 1.266
x2 = 0.3568 | 1.17
x2 = 0.4174 | 1.103
x2 = 0.4937 | 1.012
x2 = 0.5964 | 0.8767
x2 = 0.6989 | 0.7317
x2 = 0.8504 | 0.5162
x2 = 0.9233 | 0.4184

CCCO + CO
Settings | viscosity [mPa·s]
293.15 K, 101 kPa, x2 = 0.25 | 1.379
293.15 K, 101 kPa, x2 = 0.5 | 1.015
293.15 K, 101 kPa, x2 = 0.75 | 0.825
293.15 K, 101.3 kPa, x2 = 0.174 | 1.78
293.15 K, 101.3 kPa, x2 = 0.339 | 1.45
293.15 K, 101.3 kPa, x2 = 0.51 | 1.16
293.15 K, 101.3 kPa, x2 = 0.741 | 0.857
293.15 K, 101.3 kPa, x2 = 0.873 | 0.711
298.15 K, 101 kPa, x2 = 0.25 | 1.243
298.15 K, 101 kPa, x2 = 0.5 | 0.931
298.15 K, 101 kPa, x2 = 0.75 | 0.775
298.15 K, 101.33 kPa, x2 = 0.1414 | 1.672
298.15 K, 101.33 kPa, x2 = 0.2419 | 1.483
298.15 K, 101.33 kPa, x2 = 0.3419 | 1.315
298.15 K, 101.33 kPa, x2 = 0.4462 | 1.159
298.15 K, 101.33 kPa, x2 = 0.5137 | 1.067
298.15 K, 101.33 kPa, x2 = 0.5731 | 0.992
298.15 K, 101.33 kPa, x2 = 0.7216 | 0.825
298.15 K, 101.33 kPa, x2 = 0.8038 | 0.744
298.15 K, 101.33 kPa, x2 = 0.8805 | 0.662
303.15 K, 101 kPa, x2 = 0.25 | 1.128
303.15 K, 101 kPa, x2 = 0.5 | 0.856
303.15 K, 101 kPa, x2 = 0.75 | 0.717
308.15 K, 101 kPa, x2 = 0.25 | 1.028
308.15 K, 101 kPa, x2 = 0.5 | 0.788
308.15 K, 101 kPa, x2 = 0.75 | 0.663
313.15 K, 101 kPa, x2 = 0.25 | 0.938
313.15 K, 101 kPa, x2 = 0.5 | 0.728
313.15 K, 101 kPa, x2 = 0.75 | 0.615
313.15 K, 101.3 kPa, x2 = 0.174 | 1.17
313.15 K, 101.3 kPa, x2 = 0.339 | 0.986
313.15 K, 101.3 kPa, x2 = 0.51 | 0.822
313.15 K, 101.3 kPa, x2 = 0.741 | 0.624
313.15 K, 101.3 kPa, x2 = 0.873 | 0.53
318.15 K, 101 kPa, x2 = 0.25 | 0.859
318.15 K, 101 kPa, x2 = 0.5 | 0.673
318.15 K, 101 kPa, x2 = 0.75 | 0.571
323.15 K, 101 kPa, x2 = 0.25 | 0.787
323.15 K, 101 kPa, x2 = 0.5 | 0.623
323.15 K, 101 kPa, x2 = 0.75 | 0.531

CCCC(=O)[O-].[Na+] + O
298.15 K, 101.33 kPa
Settings | viscosity [mPa·s]
x1 = 0.008927 | 1.136
x1 = 0.0177 | 1.436
x1 = 0.02631 | 1.793
x1 = 0.03478 | 2.235

Oc1ccccc1 + CCCCN(CCCC)CCCC
298.16 K, 101 kPa
Settings | viscosity [mPa·s]
x1 = 0.5219 | 9.41
x1 = 0.6008 | 14.9
x1 = 0.6531 | 23.52
x1 = 0.6723 | 27.66
x1 = 0.7083 | 43.54
x1 = 0.7386 | 64.37
x1 = 0.7532 | 78.43
x1 = 0.7783 | 108.3
x1 = 0.7981 | 126.2
x1 = 0.8207 | 131.2
x1 = 0.8248 | 125.7
x1 = 0.8491 | 110.5
x1 = 0.8704 | 84.32
x1 = 0.9022 | 56.08
x1 = 0.9213 | 40.37
x1 = 0.9711 | 20.65
